Test results from article PMC8286840, “Identifying SARS-CoV-2 antiviral compounds by screening for small molecule inhibitors of Nsp3 papain-like protease” (Biochemical Journal, 2021).
Counter-ions that a name gives are not always drawn. Like-named read-outs stand apart in the source and are kept apart here. Where a SMILES comes first, the peptide text is derived from it. Side-chain parts run from the residue outwards. The star is where a group is joined. Nicotinoyl = O=C(c1cccnc1)*; Cbz = O=C(OCc1ccccc1)*

Tests used:
[1] = molecular target: T1, SARS-CoV-2 PLpro (nsp3 1564–1878) (Severe acute respiratory syndrome coronavirus 2, UniProt P0DTD1); assay: biochemical; set-up: FRET-quenched peptide (Pro3) cleavage by PLpro, 10 min pre-incubation, slope over 20 min, normalised to no-compound control; conditions: low concentration screen, read-out: % of control remaining
[2] = molecular target: T1, SARS-CoV-2 PLpro (nsp3 1564–1878); assay: biochemical; set-up: FRET-quenched peptide (Pro3) cleavage by PLpro, 10 min pre-incubation, slope over 20 min, normalised to no-compound control; conditions: high concentration screen, read-out: % of control remaining

CCN1CCN(C(c2ccc(C(F)(F)F)cc2)c2ccc3cccnc3c2O)CC1 (centres unmarked) [ML311]
remaining activity at 1.25 µM ([1]; Well no.=6532): 99.7%
remaining activity at 3.75 µM ([2]; Well no.=6532): 99.6%

CCCCC1OC(=O)C2=CCCCC21 (centres unmarked) [Sedanolide]
remaining activity at 1.25 µM ([1]; Well no.=3751): 92.6%
remaining activity at 3.75 µM ([2]; Well no.=3751): 98.7%

Cc1cc(C(=O)Nc2cccc(C(=O)Nc3cccc(C(F)(F)F)c3)c2)on1 [T56-LIMKi]
remaining activity at 1.25 µM ([1]; Well no.=5920): 101%
remaining activity at 3.75 µM ([2]; Well no.=5920): 98.1%

O=C(O)C=Cc1cc(Br)c(Br)c(Br)c1Br [Casein Kinase II Inhibitor III, TBCA]
remaining activity at 1.25 µM ([1]; Well no.=2374): 102%
remaining activity at 3.75 µM ([2]; Well no.=2374): 104%

CC[C@H](C)[C@H](NC(=O)[C@@H]1CCCN1C(=O)[C@H](Cc1cnc[nH]1)NC(=O)[C@H](CCCCNC(=O)[C@H](CCCN=C(N)N)NC(=O)OCc1ccccc1)NC(=O)[C@H](Cc1ccc(O)cc1)NC(=O)c1cccnc1)C(=O)O [CGP-42112] (Nicotinoyl-YK([Arg-Cbz])HPI-OH)
remaining activity at 1.25 µM ([1]; Well no.=7652): 98%
remaining activity at 3.75 µM ([2]; Well no.=7652): 97.2%

O[C@H]1[C@H](O)[C@@H](O)[C@H](O)[C@@H](O)[C@H]1O [i-Inositol]
remaining activity at 1.25 µM ([1]; Well no.=6495): 98.4%
remaining activity at 3.75 µM ([2]; Well no.=6495): 101%

O=c1oc2cc(O)ccc2s1 [Tioxolone]
remaining activity at 1.25 µM ([1]; Well no.=4952): 95.3%
remaining activity at 3.75 µM ([2]; Well no.=4952): 91.8%

O=C(O)CCC(=O)N1CCC[C@H]1C(=O)O [N-Succinyl-L-proline]
remaining activity at 1.25 µM ([1]; Well no.=1506): 89.9%
remaining activity at 3.75 µM ([2]; Well no.=1506): 91.2%

CCOc1cc(/C=C2/C(=O)N(c3ccccc3)N=C2C)cc(Cl)c1OCC(=O)OC [SJ-172550]
remaining activity at 1.25 µM ([1]; Well no.=6354): 91.1%
remaining activity at 3.75 µM ([2]; Well no.=6354): 90.9%

S=C(S)OC1CC2CC1C1CCCC21 (mixture of isomers) [D-609 potassium]
remaining activity at 1.25 µM ([1]; Well no.=1374): 99.3%
remaining activity at 3.75 µM ([2]; Well no.=1374): 99%

Cc1ccc(NC(=O)C2(c3ccc4c(c3)OC(F)(F)O4)CC2)nc1-c1cccc(C(=O)O)c1 [VX-809]
remaining activity at 1.25 µM ([1]; Well no.=4961): 95.6%
remaining activity at 3.75 µM ([2]; Well no.=4961): 95%

CCNC(=O)[C@H]1O[C@@H](n2cnc3c(N)nc(NCCc4ccc(CCC(=O)O)cc4)nc32)[C@H](O)[C@@H]1O [CGS-21680 hydrochloride]
remaining activity at 1.25 µM ([1]; Well no.=391): 105%
remaining activity at 3.75 µM ([2]; Well no.=391): 99.7%

CN1C2=CC(=O)/C(=N\NC(N)=O)C=C2CC1S(=O)(=O)O (centres unmarked) [Carbazochrome sodium sulfonate]
remaining activity at 1.25 µM ([1]; Well no.=5261): 96.5%
remaining activity at 3.75 µM ([2]; Well no.=5261): 95%

Nc1nc2c(ncn2COC(CO)CO)c(=O)[nH]1 [Ganciclovir]
remaining activity at 1.25 µM ([1]; Well no.=667): 99.1%
remaining activity at 1.25 µM ([1]; Well no.=2168): 97.3%
remaining activity at 1.25 µM ([1]; Well no.=8062): 97.2%
remaining activity at 3.75 µM ([2]; Well no.=667): 97.3%
remaining activity at 3.75 µM ([2]; Well no.=2168): 99.3%
remaining activity at 3.75 µM ([2]; Well no.=8062): 97.7%

O=C(CCCCCCc1ccccc1)c1ncc(-c2ccccn2)o1 [7-phenyl-1-[5-(2-pyridinyl)-1,3-oxazol-2-yl]-1-heptanone]
remaining activity at 1.25 µM ([1]; Well no.=5997): 92.2%
remaining activity at 3.75 µM ([2]; Well no.=5997): 91.9%

CN[C@@H](C)C(=O)N[C@H](C(=O)N1CCC[C@H]1C(=O)Nc1sc(-c2ncco2)nc1-c1ccccc1)C1CCCCC1 [CUDC-427]
remaining activity at 1.25 µM ([1]; Well no.=7062): 99.8%
remaining activity at 3.75 µM ([2]; Well no.=7062): 92.1%

CC(=O)[C@@]1(O)CC[C@H]2[C@@H]3CCC4=CC(=O)CCC4=C3[C@@H](c3ccc(N(C)C)cc3)C[C@@]21C [Ulipristal]
remaining activity at 1.25 µM ([1]; Well no.=4929): 105%
remaining activity at 3.75 µM ([2]; Well no.=4929): 104%

Cc1cc(=O)[nH]c(=S)[nH]1 [Methylthiouracil]
remaining activity at 1.25 µM ([1]; Well no.=4973): 99.9%
remaining activity at 1.25 µM ([1]; Well no.=6148): 98.5%
remaining activity at 3.75 µM ([2]; Well no.=4973): 98.5%
remaining activity at 3.75 µM ([2]; Well no.=6148): 102%

N[C@@H](Cc1c[nH]c2ccc(O)cc12)C(=O)O [L-5-Hydroxytryptophan]
remaining activity at 1.25 µM ([1]; Well no.=7409): 99.9%
remaining activity at 3.75 µM ([2]; Well no.=7409): 104%

O=c1ccn([C@@H]2O[C@H](COP(=O)(O)OP(=O)(O)O)[C@@H](O)[C@H]2O)c(=O)[nH]1 [Uridine-5'-diphosphate disodium salt]
remaining activity at 1.25 µM ([1]; Well no.=7718): 96.1%
remaining activity at 3.75 µM ([2]; Well no.=7718): 97.7%

CN(C)CCOC(C)(c1ccccc1)c1ccccn1 (centres unmarked) [Doxylamine (succinate)]
remaining activity at 1.25 µM ([1]; Well no.=6421): 99.2%
remaining activity at 3.75 µM ([2]; Well no.=6421): 102%

COc1cc(F)c(C(C)C)cc1-c1ccc(C(F)(F)F)cc1CN1C(=O)O[C@H](c2cc(C(F)(F)F)cc(C(F)(F)F)c2)[C@@H]1C [Anacetrapib (MK-0859)]
remaining activity at 1.25 µM ([1]; Well no.=5312): 94.2%
remaining activity at 3.75 µM ([2]; Well no.=5312): 93.1%

N#Cc1ccnc(N2C(=O)CC[C@H]2C(=O)N(c2cncc(F)c2)[C@H](C(=O)NC2CC(F)(F)C2)c2ccccc2Cl)c1 [Ivosidenib (AG-120)]
remaining activity at 1.25 µM ([1]; Well no.=8630): 95.1%
remaining activity at 3.75 µM ([2]; Well no.=8630): 92.7%

CC1(C)S[C@@H]2[C@H](NC(=O)[C@H](N)c3ccc(O)cc3)C(=O)N2[C@H]1C(=O)O [Amoxicillin (sodium)]
remaining activity at 1.25 µM ([1]; Well no.=8274): 91.5%
remaining activity at 3.75 µM ([2]; Well no.=8274): 89.9%

C[C@H]1OC[C@@H](C[N+](C)(C)C)O1 [(+)-cis-Dioxolane iodide]
remaining activity at 1.25 µM ([1]; Well no.=579): 103%
remaining activity at 3.75 µM ([2]; Well no.=579): 100%

CN1CCC(=C2c3ccccc3CC(=O)c3sccc32)CC1 [Ketotifen]
remaining activity at 1.25 µM ([1]; Well no.=2056): 108%
remaining activity at 3.75 µM ([2]; Well no.=2056): 109%

COc1ccc(CCCn2ncc3c2nc(N)n2nc(-c4ccco4)nc32)cc1 [SCH-442416]
remaining activity at 1.25 µM ([1]; Well no.=5870): 98.1%
remaining activity at 3.75 µM ([2]; Well no.=5870): 97.4%

CCCc1c(OCCCCc2nnn[nH]2)ccc(C(C)=O)c1O [LY-171,883]
remaining activity at 1.25 µM ([1]; Well no.=835): 104%
remaining activity at 3.75 µM ([2]; Well no.=835): 106%

CCCc1ccc(OCC(=O)N(Cc2nc(-c3cccnc3)no2)C(C)C)cc1 [PI-1840]
remaining activity at 1.25 µM ([1]; Well no.=8718): 94.8%
remaining activity at 3.75 µM ([2]; Well no.=8718): 98.4%

Cn1cc(-c2ccc3nnc(C(F)(F)c4ccc5ncccc5c4)n3n2)cn1 [JNJ38877605]
remaining activity at 1.25 µM ([1]; Well no.=2887): 101%
remaining activity at 3.75 µM ([2]; Well no.=2887): 102%

CC1CNc2c(cccc2S(=O)(=O)N[C@@H](CCCNC(=N)N)C(=O)N2CC[C@@H](C)C[C@@H]2C(=O)O)C1 (some centres unmarked) [Argatroban]
remaining activity at 1.25 µM ([1]; Well no.=2196): 97.1%
remaining activity at 3.75 µM ([2]; Well no.=2196): 97.9%

COC1CCN(C(=O)c2cc(Cc3n[nH]c(=O)c4ccccc34)ccc2F)CC1 [AZD2461]
remaining activity at 1.25 µM ([1]; Well no.=5172): 105%
remaining activity at 3.75 µM ([2]; Well no.=5172): 102%

O=c1[nH]cc(F)c(=O)[nH]1 [5-Fluorouracil]
remaining activity at 1.25 µM ([1]; Well no.=661): 97.2%
remaining activity at 1.25 µM ([1]; Well no.=2116): 95.8%
remaining activity at 3.75 µM ([2]; Well no.=661): 98.8%
remaining activity at 3.75 µM ([2]; Well no.=2116): 98.2%
